This is an account of results in article PMC9620869 (Cancer Research, 2022).

One data set concerns hiPSC-CMs. Description: hiPSC-CM contractility. The class given is cell-based. Particulars: Homo sapiens, 96 h, read-out: hiPSC-CM contractility IC50.
For data set [1] the following is noted: oral dose escalation, maximal dose 60 mg/kg, 30 days.
A further data set concerns serum cardiac Troponin-I. Conditions: 30 mg/kg oral daily, end of treatment.
The next data set is described as follows: in vivo. Conditions: male, C57Bl/6, mouse, plasma, po, 10 mg/kg.
Another data set deals with HMVEC-Cs. Description: Vasculogenesis assay. Particulars: Homo sapiens, 6 h.

Take `Cc1ccc(C(=O)Nc2ccc(CN3CCN(C)CC3)c(C(F)(F)F)c2)cc1C#Cc1cnc2cccnn12` [Ponatinib]: the IC50 in the data set on hiPSC-CMs was > 1500 nM. Besides, the dose causing lethality in data set [1] is 50 mg/kg. Moreover, in the data set with serum cardiac Troponin-I, the “serum cardiac Troponin-I levels compared with vehicle alone” value is on record as “significantly elevated levels”. Besides, in “in vivo”, the concentration peaked (Cmax) at 200 ng/mL and the Tmax was 2 h. Moreover, the IC50 in the data set with HMVEC-Cs (read-out: Vascular profile IC50) is ~200 nM. The EC50 in the data set with HMVEC-Cs (read-out: Vasculotoxicity (EC50, μmol/L) mean ± SEM) came to 0.2 ± 0.04 µmol/L.
